Laboratory results taken from US20240076667A1, “APPLICATION OF ANTISENSE OLIGONUCLEOTIDE TARGETING PBX1 PROMOTER REGION G-QUADRUPLEX IN PREPARATION OF MEDICINE FOR TREATING MELANOMA” (JILIN UNIVERSITY, priority 2022, published 2024).

Columns and labels:
PBX1 transcript = experiment: BG4 RNA immunoprecipitation (RIP) followed by qRT-PCR in A375 cells; assay type: cell-based, human
Experimental: FIGS. 2A-2G are features formed by dG1 and rG1 in vitro and in cells. In (FIG. 2A), Left: CD spectra of WT and Mut dG1, and Right: CD spectra of WT and Mut rG1. CD is circular dichroism. In (FIG. 2B), Left: gel mobility assay of WT and Mut dG1, and Right: gel mobility assay of WT and Mut rG1. In (FIG. 2C), under specified conditions, fluorescence-on assay of NMM in absence of presence of dG1 or rG1, and their G/A mutant. In (FIG. 2D), the occupancy of BG4 in the PBX1 promoter region is measured in A375 cells by BG4 chromatin immunoprecipitation (ChIP), followed by qRT-PCR. In (FIG. 2E), RNA immunoprecipitation (RIP) detection is performed to show the association between BG4 and the PBX1 transcript in A375 cells, followed by qRT-PCR. In (FIG. 2F), the occupancy of BG4 in the PBX1 promoter region is measured, by the BG4 chip, in A375 cells treated with or without PDS and TMPyP4, followed by qRT-PCR. […] SEM represents the standard error of mean. *P< 0.05, **P< 0.01***P< 0.001.
In this embodiment, several methods are further employed to verify the formation of dG1 and rG1. First, circular dichroism (CD) is used to examine the molar ellipticity of dG1 and rG1 sequences (33 nt) and mutants thereof, and the mutants are designed to eliminate G4 formation. […] N-methyl mesoporphyrin IX (NMN) is the well-known fluorescent G4-specific ligand that can be used for studies of G4 formation in vitro. Both dG1 and rG1 are found to enhance the fluorescence of N N (FIG. 2C). In addition, in this embodiment, chromatin immunoprecipitation (ChIP) and RNA immunoprecipitation (RIP) detection are performed in A375 cells using the well-known G4-specific antibody BG4. […] In summary, dG1 and rG1 can fold stable G4 structures in vitro and in cells. […] Therefore, the ability of these G4-specific ligands to interact with PBX1 G4s is investigated next.
Control:mG*mT*mC*mC*mA*mC*mA*mA*mA*mC*mA*mC*mA*mA*mC*mT*mC* mC*mT*mG*). […] This example also establishes short-term cultures of patient-derived melanoma xenograft (PDX)-derived tumor cells (PDCs) (FIG. 5D). […]

PBX1 [1] = experiment: PBX1 mRNA and protein levels by qRT-PCR and western blot in A375 cells; assay type: cell-based, human
Experimental: (§1) RNA extraction and quantitative RT-PCR detection: total RNA is extracted from cultured cells by using TRIzol (Invitrogen, USA), then is converted into cDNA by SuperScript III First-Strand Synthesis SuperMix (Invitrogen, USA). qRT-PCR detection is performed by using SYBR Green®Mix (Invitrogen, USA) in ABI 7500 (Invitrogen, USA). A relative expression quantity of RNA is calculated by using a comparative CT method.
(§2) Immunoblotting: for protein analysis of a whole-cell lysate, cells are lysed with RIPA (CWBIO, Beijing, China) buffer solution. For tumors, liquid nitrogen is first used to pulverize tissues. Then, the lysate is generated on ice with the RIPA (CWBIO, Beijing, China) buffer solution for 20 minutes, and then centrifuged at 4° C., 13000 rpm for 15 minutes. Protein-containing supernatant is transferred to the fresh microcentrifuge tube, and stored at −20° C. (short-term storage) for subsequent use. The protein is quantified by using the BIO-RAD DC protein assay. The total proteins are electrophoresed on SDS-polyacrylamide gels. Then, the proteins are transferred to polyvinylidene difluoride (PVDF) membrane. After incubation with the primary antibody overnight on the shaker at 4° C., the membrane is washed 6 times (5 minutes each time) with TBS-T (Invitrogen, USA). Then, blots are incubated with horseradish peroxidase (IRP)-conjugated secondary antibodies for 60 minutes at RT on the plate shaker. The membrane is cleaned by TBS-T (6×5 minutes). Detection on immunoreactive bands is performed by using SuperSignalmWest Pico chemiluminescence substrate kit (Thermo Fisher Scientific, USA) and Western blotting detection system (BioRad, USA). GAPDH is used as the loading control for western blotting. The intensity levels of the bands are normalized to GAPDH.

PBX1 [2] = experiment: PBX1 mRNA and protein levels by qRT-PCR and western blot in B16-F10 cells; assay type: cell-based, mouse
Experimental: as §1, §2

A375 cells = experiment: Colony forming assay, A375; assay type: cell-based, human
Experimental: (§3) Colony forming assay: for the colony forming assay, A375 and B16-F10 cells are seeded on 6-well plates with the density of 500-1000 cells. After two weeks, staining is performed by using 1% crystal violet at room temperature, rinsing is performed with PBS and tap water, and the number of colonies is counted.

PDCs = experiment: Colony forming assay, patient-derived tumor cells; assay type: cell-based, human
Experimental: as §3
Preparation of patient-derived tumor cells: tumor tissues of PDXs are used in basic RPMI1640 medium (Gibco, USA. Free-FBS medium). Patient-derived tumor cells (PDC) are prepared from cryopreserved xenograft fragments using the tumor isolation kit (Miltenyi Biotec, Germany), following the tumor treatment solution. PDCs are cultured as described by Bruna and Shanker et al. (6,7). PDCs are used for colony forming assays.

B16-F10 cells = experiment: In vivo tumor metastasis assay, B16-F10 tail vein injection; set-up: species or system mice; settings: in vivo studies, summary statement
Experimental: In vivo tumor metastasis assay: 2×10^5 B16-F10 cells are injected into the tail vein of tail vein tumor. According to solutions formulated by the NCI Animal Care and Use Committee, metastatic endpoints are determined for each experiment by maximal primary tumor burden and/or appearance of moribund mice in all treatment groups. PDS (5 mg/kg) is administered twice a day, for 16 consecutive days.
Bioluminescent tumor cell tracking: in vivo whole-animal imaging, anesthetized mice are injected intraperitoneally with 3 mg of d-luciferin (MCE, USA). Luminescence data is collected on an IVIS system (Perkin Elmer, USA). For live tissue imaging, tissues are perfused with PBS, harvested, and incubated in PBS with 1 μg/ml-1d-luciferin. Data analysis is performed using an IVIS Image software package.

[3] = test system: patient-derived melanoma xenograft (PDX); experiment: PDX model of melanoma in NCG mice; assay type: in vivo
Experimental: PDX model of melanoma: fresh tumor tissues are collected immediately after surgery, placed in RPMI 1640 medium containing penicillin/streptomycin (100 U/ml; 100 μg/ml), fungal zone (1 μg/ml) and Genta Mycin (50 μg/ml) (all from Gibco, USA) (4,5). According to the institutional review and the ethical guidelines for this study approved by the Ethics Committee of the Second Hospital of Jilin University, fresh tumor samples from patients suffering from melanoma are collected for transplantation with informed consent. The mice were kept and all procedures are performed under the approval and supervision of the Institutional Animal Care and Use Committee (IACUC) of the School of Public Health of Jilin University (Changchun, China). Necrotic tissues are excised before transplantation, and tumor tissues are minced to a size of 2×2×2 mm^3, and implanted subcutaneously in the flank of 6-week-old NCG male mice to generate first-generation (F1) PDX mice. Successfully transplanted tumor models are passaged and stored using standard methods. H&E staining is used to evaluate the morphology of patient tumor specimens and xenografts of established PDX models. Treatment with ASO Scr or ASO (intravenous injection, 20 mg/kg) is initiated when the tumor volume of the mice reached 220-280 mm^3. Tumor growth and body weight measurements are performed. Tumors are dissected at the end of treatment for further processing for RNA, protein and histological analysis.
Control:mG*mT*mC*mC*mA*mC*mA*mA*mA*mC*mA*mC*mA*mA*mC*mT*mC* mC*mT*mG*). […] This example also establishes short-term cultures of patient-derived melanoma xenograft (PDX)-derived tumor cells (PDCs) (FIG. 5D). […] To further expand the analysis, this embodiment establishes the PDX model of melanoma, and […] is administered intravenously (intravenous injection) every two days for 21 days.

melanoma cell line = experiment: Proliferation, migration and invasion of the melanoma cell line (summary statement); assay type: cell-based
Source text: The present invention detects the effect of PBX1-G4 on growth and lung metastasis of melanoma and discovers that the expression of PBX1 is positively correlated with the development of melanoma. The sequence of PBX1 is conserved in evolution and is same in mice and human beings. […] The identification of the present invention on the antisense oligonucleotide targeting the PBX1 promoter region G-quadruplex provides the new drug target and new treatment methods and ideas for development of the new generation of medicine for treating melanoma.

[4] = western blot, normalized to GAPDH
[5] = PDX, intravenous injection 20 mg/kg every two days for 21 days, vs PBX1 ASO scramble

ASO: ASO specific for the complementary sequence of rG1 in the 5′ UTR of PBX1: mG*mG*mG*G*T*mT*mG*mC*mG*mG*mG*mG*mT*mG*mA*G*G*G*T*mG* (antisense GGGGTTGCGGGGTGAGGGTG; chemistry not given here)
PBX1 transcript pulled down by BG4 (PBX1 transcript): increases
mRNA level of PBX1 (PBX1 [1]; qRT-PCR): effectively reduce
protein level of PBX1 (PBX1 [1]; [4]): effectively reduce
mRNA level of PBX1 (PBX1 [2]; qRT-PCR): effectively reduce
protein level of PBX1 (PBX1 [2]; [4]): effectively reduce
colony formation (A375 cells): decreases
colony formation ability (PDCs): decreases
lung metastasis of melanoma (B16-F10 cells): almost completely inhibits
expression of proliferation marker Ki67 in tumors ([3]; PDX): significant downregulation
tumor growth [3, 5]: significant reduction
tumor weight [3, 5]: significant reduction
expression of PBX1 in tumors ([3]; PDX, qRT-PCR and IHC staining): significant downregulation
growth of melanoma ([3]; in vivo studies, summary statement): almost completely inhibits
invasion capability of the melanoma cell line (melanoma cell line): obviously inhibits
migration capability of the melanoma cell line (melanoma cell line): obviously inhibits
proliferation capability of the melanoma cell line (melanoma cell line): obviously inhibits
